TGI and GI50 data for 19 molecules are collected here from PubChem BioAssay (NCI).

Some test systems named below: A549 NSCLC; HOP-62 NSCLC; NCI-H23 lung; SF-268 CNS; U251 CNS; HL-60(TB) leukemia; MDA-N.
Experiment in all cases: NCI tumour cell line growth inhibition, 48 h

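Tested at 5 concentrations; 48 h exposure; 96-well plates; endpoints linearly interpolated, else capped at highest concentration. Here, GI50 denotes the concentration required for 50% inhibition of growth. TGI is the concentration that stops growth completely.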

`CC(C)OC(=O)[C@@H](O)[C@H](CO)C1=CC([Si](C)(C)c2ccccc2)=CON1`: the TGI in the experiment on A549 NSCLC, with HOP-62 NSCLC, in the experiment with NCI-H23 lung, in the experiment on SF-268 CNS and in the experiment on U251 CNS was more than 100 µM each time.
Turning to `CSc1nc2c(=O)n(-c3ccccc3)c(=S)n(-c3ccccc3)c2s1`, the TGI in the experiment on A549 NSCLC, with HL-60(TB) leukemia, in the experiment with HOP-62 NSCLC, in the experiment on MDA-N, with NCI-H23 lung and with SF-268 CNS was more than 100 µM throughout. Further, the TGI in the experiment on U251 CNS is more than 100 µM.
`O=C1C(NCCN2CCOCC2)=C(Cl)C(=O)c2ncccc21`: the TGI in the experiment on A549 NSCLC turned out to be 3.36 µM; with HL-60(TB) leukemia it was 0.168 µM; in the experiment with HOP-62 NSCLC it was 3.63 µM; in the experiment on MDA-N, 0.346 µM; in the experiment on NCI-H23 lung it was 2.73 µM; with SF-268 CNS it was 3.37 µM. The same molecule registered a TGI in the experiment with U251 CNS of 2.23 µM.
Take `CC(=O)NC(Cc1ccc(OP(=O)(OCc2ccc([N+](=O)[O-])o2)N(C)CCCCCl)cc1)C(=O)NC(C)c1ccc(OCC2CCCCC2)c(C(N)=O)c1` (configuration not stated): the TGI in the experiment on A549 NSCLC was found to be 18.2 µM; in the experiment with HL-60(TB) leukemia it was 6.83 µM; in the experiment on HOP-62 NSCLC, 23.7 µM; with MDA-N, 5.22 µM; with NCI-H23 lung it was 6.3 µM; in the experiment with SF-268 CNS it was 6.48 µM. In addition, the TGI in the experiment with U251 CNS turned out to be 6.49 µM.
For the molecule `CC(=O)O[C@H]1C[C@H]2C(=S)Nc3ccccc3C(=S)N2C1`, the TGI in the experiment with A549 NSCLC, in the experiment with HOP-62 NSCLC, in the experiment with MDA-N, in the experiment with NCI-H23 lung, in the experiment on SF-268 CNS and with U251 CNS was more than 100 µM in each case.
Regarding `Cc1ccc(C(=O)Nc2ccc(S(=O)(=O)O)c3cc(S(=O)(=O)O)cc(S(=O)(=O)O)c23)cc1NC(=O)c1cccc(NC(=O)Nc2cccc(C(=O)Nc3cc(C(=O)Nc4ccc(S(=O)(=O)O)c5cc(S(=O)(=O)O)cc(S(=O)(=O)O)c45)ccc3C)c2)c1` (tested in a mixture with another compound), the TGI in the experiment with A549 NSCLC, in the experiment on HL-60(TB) leukemia, with MDA-N, in the experiment with NCI-H23 lung, with SF-268 CNS and with U251 CNS was more than 50 µM each time.
Consider `C(=C\c1cc(-c2ccc3ccccc3n2)nc2ccc3ccccc3c12)/c1ccc2ccccc2n1`, for which the TGI with A549 NSCLC, in the experiment with HL-60(TB) leukemia, in the experiment with HOP-62 NSCLC, in the experiment with MDA-N, in the experiment with SF-268 CNS and in the experiment on U251 CNS was more than 100 µM each time.
Take `CC(C)(C)c1ccc(C(C)(C)C)c(N2C(=O)C3ON=C(c4ccc([N+](=O)[O-])cc4)C3C2=O)c1` (configuration not stated): the TGI in the experiment on A549 NSCLC, in the experiment on HL-60(TB) leukemia, in the experiment on HOP-62 NSCLC, in the experiment with MDA-N, in the experiment on NCI-H23 lung and with SF-268 CNS was more than 25 µM each time.
For the molecule `CCOc1ccc2nc(NC(NC(=O)c3cccnc3)(C(F)(F)F)C(F)(F)F)sc2c1`, the TGI in the experiment on A549 NSCLC is more than 100 µM; in the experiment on HL-60(TB) leukemia, 94.8 µM; with MDA-N, 42.9 µM; in the experiment with NCI-H23 lung, 65.5 µM; in the experiment with SF-268 CNS, more than 100 µM; in the experiment with U251 CNS, more than 100 µM.
Consider `Oc1ccc(C#CCOc2ccccc2)cc1CNCCN(Cc1ccccn1)Cc1ccccn1`, for which the GI50 in the experiment with A549 NSCLC was 1.33 µM; in the experiment with HL-60(TB) leukemia, 1.19 µM; with HOP-62 NSCLC it was 0.762 µM; in the experiment on NCI-H23 lung, 1.83 µM; with SF-268 CNS it was 1.37 µM; in the experiment with U251 CNS, 0.668 µM. Further, the TGI in the experiment on A549 NSCLC was determined as 3.47 µM; in the experiment with HL-60(TB) leukemia, 4.21 µM; in the experiment with HOP-62 NSCLC it was 2.96 µM; with NCI-H23 lung it was 5.51 µM; in the experiment with SF-268 CNS, 4.29 µM; with U251 CNS it was 5.16 µM.
Take `Cc1nc(C(N)=S)sc1C(=O)C/C(=N/N)C(=O)Nc1ccc(Cl)cc1`: the TGI in the experiment on A549 NSCLC, with HOP-62 NSCLC, in the experiment on MDA-N, in the experiment on NCI-H23 lung, in the experiment with SF-268 CNS and with U251 CNS was more than 100 µM throughout.
As for `CC1CCc2sc3[nH]c(=S)n(-c4ccccc4)c(=O)c3c2C1` (configuration not stated), the TGI with A549 NSCLC, in the experiment with HOP-62 NSCLC, with MDA-N, in the experiment with NCI-H23 lung, in the experiment with SF-268 CNS and in the experiment on U251 CNS was more than 100 µM throughout.
In the case of `CC(NC(C#N)CC12CC3CC(CC(C3)C1)C2)c1ccccc1` (configuration not stated), the TGI is more than 100 µM in the experiment on A549 NSCLC; 42.3 µM with HL-60(TB) leukemia; more than 100 µM in the experiment with HOP-62 NSCLC; more than 100 µM in the experiment on MDA-N; more than 100 µM in the experiment on SF-268 CNS; more than 100 µM with U251 CNS.
Turning to `CC(=O)/C=C(\O)c1[nH]c(C(=O)O)cc1C1CCN(Cc2ccccc2)C1=O` (configuration not stated), the TGI was 81.4 µM in the experiment with A549 NSCLC; 32.8 µM with HOP-62 NSCLC; 33.8 µM in the experiment with MDA-N; 35.3 µM in the experiment on NCI-H23 lung; 49.5 µM with SF-268 CNS; more than 100 µM with U251 CNS.
With `c1ccc(C(CCN2CC3CCC(CC3)C2)c2ccccc2)cc1`, the TGI with A549 NSCLC was more than 100 µM; in the experiment on HOP-62 NSCLC, 70.5 µM; in the experiment with MDA-N, 58.9 µM; with NCI-H23 lung, 36.1 µM; in the experiment with SF-268 CNS, 69.2 µM; in the experiment with U251 CNS, 35.1 µM.
For the molecule `NS(=O)(=O)c1nnc(NS(=O)(=O)c2ccccc2C(=O)O)s1`, the TGI in the experiment on A549 NSCLC, in the experiment with HOP-62 NSCLC, in the experiment with MDA-N, in the experiment on NCI-H23 lung, in the experiment with SF-268 CNS and in the experiment with U251 CNS was more than 100 µM each time.
`CCN(CC)C(=O)N1CN(c2ccccc2)C2(CCN(CCCSc3ccc(F)cc3)CC2)C1=O`: the TGI with A549 NSCLC was more than 100 µM; in the experiment on HL-60(TB) leukemia, 19.4 µM; in the experiment on MDA-N it was 21.3 µM; in the experiment with NCI-H23 lung, 22.4 µM; with SF-268 CNS it was 36.1 µM; in the experiment on U251 CNS, 26.8 µM.
As to `COc1ccc(/C=N/NC(=O)c2cnc3[nH]c(=O)n(C)c(=O)c3c2)cc1`, the TGI in the experiment with A549 NSCLC, with HOP-62 NSCLC, in the experiment with MDA-N, with NCI-H23 lung, with SF-268 CNS and with U251 CNS was more than 100 µM throughout.
On to `Oc1ccc(O)c(CNc2ccccc2)c1`, for which the TGI in the experiment with A549 NSCLC was more than 100 µM; with HL-60(TB) leukemia, 12.8 µM; in the experiment on MDA-N, 16.6 µM; in the experiment on NCI-H23 lung, 32.4 µM; with SF-268 CNS, more than 100 µM; in the experiment with U251 CNS, 44.2 µM.
